Reference: patent US20250381110A1, “SKIN CARE COMPOSITION AND METHOD OF USING THE SAME” (THE PROCTER & GAMBLE COMPANY, priority 2024, published 2025)
Structures can show the parent of a compound that is named as a salt.

Test system: p62-dependent mitophagy
Assay: Luciferase-p62 assay (Fluc-p62 clearance) in mouse embryonic fibroblasts
Type: cell-based
Conditions: for Mean Luminescence: Luciferase-p62 assay, mouse embryonic fibroblasts (MEFs), compounds at 10 μM; for % Activity over baseline: percentage of Luciferase-p62 clearance relative to baseline (mean luminescence in the absence of doxycycline induction); for % Activity over baseline / % Activity relative to Rapamycin: MEFs, 10 μM; for % Activity relative to Rapamycin: percentage of activity relative to rapamycin tested in the same experiment at the same concentration
Method in brief: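 MEFs with doxycycline-inducible Fluc-p62; after induction, doxycycline removed and cells treated 48 h with compounds at 10 μM. Fluc-p62 clearance, taken as mitophagy, read by ONE-Glo+Tox luciferase with viability. Vehicle (DMSO) as negative control; activity also expressed relative to rapamycin.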

SMILES	Mean Luminescence	% Activity over baseline [%]	% Activity relative to Rapamycin [%]
C/C=C1/[C@H](O[C@@H]2O[C@H](CO)[C@@H](O)[C@H](O)[C@H]2O)OC=C(C(=O)OC)[C@H]1CC(=O)OCCc1ccc(O)c(O)c1 [Oleuropein]	843.32	47.88	86.27
C[C@@H]1O[C@@H](O[C@H]2C[C@@H](O)[C@]3(CO)[C@H]4[C@H](O)C[C@]5(C)[C@@H](C6=CC(=O)OC6)CC[C@]5(O)[C@@H]4CC[C@]3(O)C2)[C@H](O)[C@H](O)[C@H]1O [Ouabain]	788.34	51.28	92.39
CCN(CC)CC#CCOC(=O)C(O)(c1ccccc1)C1CCCCC1 (stereo not drawn) [Oxybutynin chloride]	882.87	45.44	81.87
Oc1cc(O)cc(/C=C/c2ccc(O)cc2O)c1 [Oxyresveratrol]	403.74	75.05	135.22
O=C1c2cccc3c2[C@H](CCC3)CN1[C@@H]1CN2CCC1CC2 [Palonosetron HCl]	915.97	43.39	78.18
O=C(CCc1ccc(O)cc1)c1c(O)cc(O)cc1O [Phloretin]	912.42	43.61	78.58
CCc1ccc(CCOc2ccc(CC3SC(=O)NC3=O)cc2)nc1 (stereo not drawn) [Pioglitazone]	847.16	47.65	85.84
COc1cccc2c1C(=O)c1c(O)c3c(c(O)c1C2=O)C[C@@](O)(C(=O)CO)C[C@@H]3O[C@H]1C[C@H](N)[C@H](O[C@@H]2CCCCO2)[C@H](C)O1 [Pirarubicin]	978.32	39.54	71.24
CC(=O)[C@H]1CC[C@H]2[C@@H]3CC=C4C[C@@H](O)CC[C@]4(C)[C@H]3CC[C@]12C [Pregnenolone]	870.09	46.23	83.29
CCCNC(C)C(=O)Nc1ccccc1C (stereo not drawn) [Prilocaine]	905.23	44.06	79.38
C[C@H](CC[C@@]1(O)O[C@H]2C[C@H]3[C@@H]4CC=C5C[C@@H](O[C@@H]6O[C@H](CO)[C@@H](O[C@@H]7O[C@@H](C)[C@H](O)[C@@H](O)[C@H]7O)[C@H](O)[C@H]6O[C@@H]6O[C@@H](C)[C@H](O)[C@@H](O)[C@H]6O)CC[C@]5(C)[C@H]4CC[C@]3(C)[C@H]2[C@@H]1C)CO[C@@H]1O[C@H](CO)[C@@H](O)[C@H](O)[C@H]1O [Protodioscin]	713.58	55.90	100.72
Oc1ccccc1O [Pyrocatechol]	906.35	43.99	79.25
Oc1cccc(O)c1O [Pyrogallol]	936.38	42.13	75.91
CC(=O)CCc1ccc(O)cc1 [Raspberry ketone]	696.39	56.96	102.63
COC(=O)[C@H]1[C@H]2C[C@@H]3c4[nH]c5cc(OC)ccc5c4CCN3C[C@H]2C[C@@H](OC(=O)c2cc(OC)c(OC)c(OC)c2)[C@@H]1OC [Reserpine hydrochloride]	810.13	49.93	89.97
COC(=O)[C@H]1[C@H]2C[C@@H]3c4[nH]c5cc(OC)ccc5c4CCN3C[C@H]2C[C@@H](OC(=O)c2cc(OC)c(OC)c(OC)c2)[C@@H]1OC [Reserpine]	915.14	43.44	78.27
CC[C@H]1CN2CC[C@]3(C(=O)Nc4ccccc43)[C@@H]2C[C@@H]1/C(=C\OC)C(=O)OC [Rhynchophylline]	953.80	41.05	73.97
O[C@@H]1[C@@H](O)[C@H](OC/C=C/c2ccccc2)O[C@H](CO[C@@H]2OC[C@H](O)[C@H](O)[C@H]2O)[C@H]1O [Rosavin]	983.74	39.20	70.64
C[C@H]1O[C@@H](O[C@H]2CC[C@@]3(C)[C@@H](CC[C@]4(C)[C@@H]3C=C[C@]35OC[C@@]6(CCC(C)(C)C[C@H]63)[C@@H](O)C[C@]54C)[C@]2(C)CO)[C@H](O)[C@@H](O[C@@H]2O[C@H](CO)[C@@H](O)[C@H](O)[C@H]2O)[C@H]1O [Saikosaponin A]	561.50	65.30	117.65
CC[C@@H](C(=O)[C@@H](C)[C@@H](O)[C@H](C)[C@@H]1O[C@@H]([C@@H](CC)C(=O)O)CC[C@@H]1C)[C@H]1O[C@]2(C=C[C@@H](O)[C@]3(CC[C@@](C)([C@H]4CC[C@](O)(CC)[C@H](C)O4)O3)O2)[C@H](C)C[C@@H]1C [Salinomycin]	792.70	51.01	91.91
CCOC(=O)NCCCC(=O)NCCc1ccccc1 [Santacruzamate A (CAY10683)]	972.04	39.93	71.94
CN1[C@@H]2C[C@@H](OC(=O)[C@H](CO)c3ccccc3)C[C@H]1[C@@H]1O[C@@H]12 [Scopolamine hydrobromide]	937.62	42.05	75.77
CC(C)=CCOc1ccc(/C=C/C(=O)c2ccc(OCC=C(C)C)cc2OCC(=O)O)cc1 [Sofalcone]	760.95	52.97	95.44
CNC(=O)c1cc(Oc2ccc(NC(=O)Nc3ccc(Cl)c(C(F)(F)F)c3)cc2)ccn1 [Sorafenib]	932.25	42.39	76.37
CN[C@@H]1[C@H](O)[C@H](NC)[C@H]2O[C@@]3(O)C(=O)C[C@@H](C)O[C@H]3O[C@@H]2[C@H]1O [Spectinomycin dihydrochloride]	953.21	41.09	74.04
NCCCNCCCCNCCCN [Spermine]	720.40	55.48	99.96
COc1cc(NS(=O)(=O)c2ccc(N)cc2)nc(OC)n1 [Sulfadimethoxine]	821.82	49.21	88.67
COc1cc(C=O)cc(OC)c1O [Syringaldehyde]	896.55	44.59	80.34
C=CC[C@@H]1/C=C(\C)C[C@H](C)C[C@H](OC)[C@H]2O[C@@](O)(C(=O)C(=O)N3CCCC[C@H]3C(=O)O[C@H](/C(C)=C/[C@@H]3CC[C@@H](O)[C@H](OC)C3)[C@H](C)[C@@H](O)CC1=O)[C@H](C)C[C@@H]2OC [Tacrolimus (FK506)]	512.17	68.35	123.15
